Values of other authors as cited in patent US8404891B2, “Storage-stable formulation of paracetamol in aqueous solution” (Neogen N.V., priority 2009, dated 2013).

Settings: aqueous solution; K. T. Koshy et al., 1961

## CC(=O)Nc1ccc(O)cc1 [paracetamol, N-(4-hydroxy-phenyl)acetamide]
  pH at which rate of degradation is minimal: ~6
